Experimental data reported in PubChem BioAssay (NCI).
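How tested: cells in 96-well plates exposed to compound for 48 hours at five concentrations. GI50: concentration for 50% inhibition of growth. TGI: concentration producing complete growth inhibition.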

Legend:
Assay in all cases: DTP human tumour cell line panel, 48 h
786-0 renal = system: 786-0 renal
A498 renal = system: A498 renal
A549 NSCLC = system: A549 NSCLC
ACHN renal = system: ACHN renal
BT-549 breast = system: BT-549 breast
CAKI-1 renal = system: CAKI-1 renal
CCRF-CEM leukemia = system: CCRF-CEM leukemia
COLO 205 colon = system: COLO 205 colon
DU-145 prostate = system: DU-145 prostate
HCC-2998 colon = system: HCC-2998 colon
HCT-116 colon = system: HCT-116 colon
HCT-15 colon = system: HCT-15 colon
HL-60(TB) leukemia = system: HL-60(TB) leukemia
HOP-62 NSCLC = system: HOP-62 NSCLC
HOP-92 NSCLC = system: HOP-92 NSCLC
HS 578T breast = system: HS 578T breast
HT29 colon = system: HT29 colon
IGROV1 ovarian = system: IGROV1 ovarian
K-562 leukemia = system: K-562 leukemia
KM12 colon = system: KM12 colon
LOX IMVI melanoma = system: LOX IMVI melanoma
M14 melanoma = system: M14 melanoma
MALME-3M melanoma = system: MALME-3M melanoma
MCF7 breast = system: MCF7 breast
MDA-MB-231 breast = system: MDA-MB-231 breast
MDA-MB-435 = system: MDA-MB-435
MOLT-4 leukemia = system: MOLT-4 leukemia
NCI-H226 lung = system: NCI-H226 lung
NCI-H23 lung = system: NCI-H23 lung
NCI-H460 lung = system: NCI-H460 lung
NCI-H522 lung = system: NCI-H522 lung
NCI/ADR-RES ovarian = system: NCI/ADR-RES ovarian
OVCAR-3 ovarian = system: OVCAR-3 ovarian
OVCAR-4 ovarian = system: OVCAR-4 ovarian
OVCAR-5 ovarian = system: OVCAR-5 ovarian
OVCAR-8 ovarian = system: OVCAR-8 ovarian
PC-3 prostate = system: PC-3 prostate
RPMI-8226 leukemia = system: RPMI-8226 leukemia
SF-268 CNS = system: SF-268 CNS
SF-295 CNS = system: SF-295 CNS
SF-539 CNS = system: SF-539 CNS
SK-MEL-2 melanoma = system: SK-MEL-2 melanoma
SK-MEL-28 melanoma = system: SK-MEL-28 melanoma
SK-MEL-5 melanoma = system: SK-MEL-5 melanoma
SK-OV-3 ovarian = system: SK-OV-3 ovarian
SN12C renal = system: SN12C renal
SNB-19 CNS = system: SNB-19 CNS
SNB-75 CNS = system: SNB-75 CNS
SW-620 colon = system: SW-620 colon
T-47D breast = system: T-47D breast
TK-10 renal = system: TK-10 renal
U251 CNS = system: U251 CNS
UACC-257 melanoma = system: UACC-257 melanoma
UACC-62 melanoma = system: UACC-62 melanoma
UO-31 renal = system: UO-31 renal
RXF 393 renal = system: RXF 393 renal

`COc1ccc2nc(C)cc(Nc3ccccc3O)c2c1` was tested, and the GI50 (786-0 renal) was 18.1 µM, the TGI (786-0 renal) was 42.1 µM and the GI50 (A498 renal) was 8.07 µM. The TGI (A498 renal) was 45.2 µM, the GI50 (A549 NSCLC) was 38 µM and the TGI (A549 NSCLC) was > 100 µM. For the same compound, the GI50 (ACHN renal) was 32.1 µM, the TGI (ACHN renal) was > 100 µM and the GI50 (BT-549 breast) was 37.1 µM. The TGI (BT-549 breast) was > 100 µM, the GI50 (CAKI-1 renal) was 36.1 µM and the TGI (CAKI-1 renal) was > 100 µM. The GI50 (CCRF-CEM leukemia) was 21.7 µM, the TGI (CCRF-CEM leukemia) was > 100 µM and the GI50 (COLO 205 colon) was 18.3 µM. The TGI (COLO 205 colon) was 36.5 µM, the GI50 (DU-145 prostate) was 45.3 µM and the TGI (DU-145 prostate) was > 100 µM. It also gave a GI50 (HCC-2998 colon) of 17.6 µM, a TGI (HCC-2998 colon) of 34.3 µM and a GI50 (HCT-116 colon) of 15 µM. The TGI (HCT-116 colon) was 82 µM, the GI50 (HCT-15 colon) was 32.4 µM and the TGI (HCT-15 colon) was > 100 µM. It also gave a GI50 (HL-60(TB) leukemia) of 21 µM, a TGI (HL-60(TB) leukemia) of 48 µM and a GI50 (HOP-62 NSCLC) of 49.3 µM. The TGI (HOP-62 NSCLC) was > 100 µM, the GI50 (HOP-92 NSCLC) was 10.9 µM and the TGI (HOP-92 NSCLC) was 61.2 µM. The GI50 (HS 578T breast) was 31.9 µM, the TGI (HS 578T breast) was > 100 µM and the GI50 (HT29 colon) was 23.9 µM. The TGI (HT29 colon) was > 100 µM, the GI50 (IGROV1 ovarian) was 31.4 µM and the TGI (IGROV1 ovarian) was > 100 µM. It also gave a GI50 (K-562 leukemia) of 17.8 µM, a TGI (K-562 leukemia) of 64.8 µM and a GI50 (KM12 colon) of 35.9 µM. For the same compound, the TGI (KM12 colon) was > 100 µM, the GI50 (LOX IMVI melanoma) was 18.5 µM and the TGI (LOX IMVI melanoma) was 39 µM. It also gave a GI50 (M14 melanoma) of 17.6 µM, a TGI (M14 melanoma) of 45.8 µM and a GI50 (MALME-3M melanoma) of 27.3 µM. It also gave a TGI (MALME-3M melanoma) of 61.2 µM, a GI50 (MCF7 breast) of 20.5 µM and a TGI (MCF7 breast) of 51.2 µM. For the same compound, the GI50 (MDA-MB-231 breast) was 27.9 µM, the TGI (MDA-MB-231 breast) was > 100 µM and the GI50 (MDA-MB-435) was 18.1 µM. For the same compound, the TGI (MDA-MB-435) was 45.4 µM, the GI50 (MOLT-4 leukemia) was 24.8 µM and the TGI (MOLT-4 leukemia) was 78.6 µM. The GI50 (NCI-H226 lung) was 28 µM, the TGI (NCI-H226 lung) was > 100 µM and the GI50 (NCI-H23 lung) was 38.5 µM. The TGI (NCI-H23 lung) was > 100 µM, the GI50 (NCI-H460 lung) was 19.4 µM and the TGI (NCI-H460 lung) was 54.4 µM. The GI50 (NCI-H522 lung) was 45.2 µM, the TGI (NCI-H522 lung) was > 100 µM and the GI50 (NCI/ADR-RES ovarian) was 47.2 µM. The TGI (NCI/ADR-RES ovarian) was > 100 µM, the GI50 (OVCAR-3 ovarian) was 37.2 µM and the TGI (OVCAR-3 ovarian) was > 100 µM. For the same compound, the GI50 (OVCAR-4 ovarian) was 22.4 µM, the TGI (OVCAR-4 ovarian) was > 100 µM and the GI50 (OVCAR-5 ovarian) was 28.9 µM. For the same compound, the TGI (OVCAR-5 ovarian) was > 100 µM, the GI50 (OVCAR-8 ovarian) was 24.8 µM and the TGI (OVCAR-8 ovarian) was 69.7 µM. The GI50 (PC-3 prostate) was 29.9 µM, the TGI (PC-3 prostate) was > 100 µM and the GI50 (RPMI-8226 leukemia) was 17.2 µM. The TGI (RPMI-8226 leukemia) was 51.4 µM, the GI50 (SF-268 CNS) was 29.2 µM and the TGI (SF-268 CNS) was > 100 µM. For the same compound, the GI50 (SF-295 CNS) was 24.5 µM, the TGI (SF-295 CNS) was > 100 µM and the GI50 (SF-539 CNS) was 19.2 µM. For the same compound, the TGI (SF-539 CNS) was 42.2 µM, the GI50 (SK-MEL-2 melanoma) was 27.1 µM and the TGI (SK-MEL-2 melanoma) was 86.8 µM. For the same compound, the GI50 (SK-MEL-28 melanoma) was 21.3 µM, the TGI (SK-MEL-28 melanoma) was 57.3 µM and the GI50 (SK-MEL-5 melanoma) was 15.4 µM. For the same compound, the TGI (SK-MEL-5 melanoma) was 30.4 µM, the GI50 (SK-OV-3 ovarian) was > 100 µM and the TGI (SK-OV-3 ovarian) was > 100 µM. The GI50 (SN12C renal) was 38.2 µM, the TGI (SN12C renal) was > 100 µM and the GI50 (SNB-19 CNS) was 76.5 µM. For the same compound, the TGI (SNB-19 CNS) was > 100 µM, the GI50 (SNB-75 CNS) was 69.9 µM and the TGI (SNB-75 CNS) was > 100 µM. The GI50 (SW-620 colon) was 26.7 µM, the TGI (SW-620 colon) was > 100 µM and the GI50 (T-47D breast) was 32.8 µM. For the same compound, the TGI (T-47D breast) was 96.8 µM, the GI50 (TK-10 renal) was 50.6 µM and the TGI (TK-10 renal) was > 100 µM. The GI50 (U251 CNS) was 17.6 µM, the TGI (U251 CNS) was 35.3 µM and the GI50 (UACC-257 melanoma) was 19 µM. For the same compound, the TGI (UACC-257 melanoma) was 43.6 µM, the GI50 (UACC-62 melanoma) was 17.9 µM and the TGI (UACC-62 melanoma) was 39.5 µM. For the same compound, the GI50 (UO-31 renal) was 21.2 µM and the TGI (UO-31 renal) was > 100 µM.

Work on `N#C[S-].[Au+].c1ccc(CN2[CH-]N(Cc3ccccc3)C(c3ccccc3)=C2c2ccccc2)cc1` yielded a GI50 (786-0 renal) of 0.444 µM, a TGI (786-0 renal) of 1.91 µM and a GI50 (A498 renal) of 0.251 µM. For the same compound, the TGI (A498 renal) was 0.822 µM, the GI50 (A549 NSCLC) was 0.593 µM and the TGI (A549 NSCLC) was 3.24 µM. It also gave a GI50 (BT-549 breast) of 0.47 µM, a TGI (BT-549 breast) of 1.88 µM and a GI50 (DU-145 prostate) of 0.479 µM. The TGI (DU-145 prostate) was 1.69 µM, the GI50 (HL-60(TB) leukemia) was 0.414 µM and the TGI (HL-60(TB) leukemia) was 2.34 µM. For the same compound, the GI50 (HOP-92 NSCLC) was 0.292 µM, the TGI (HOP-92 NSCLC) was 1 µM and the GI50 (HS 578T breast) was 0.744 µM. The TGI (HS 578T breast) was 4.62 µM, the GI50 (KM12 colon) was 0.527 µM and the TGI (KM12 colon) was 2.79 µM. For the same compound, the GI50 (MALME-3M melanoma) was 0.284 µM, the TGI (MALME-3M melanoma) was 1.15 µM and the GI50 (MDA-MB-435) was 0.492 µM. It also gave a TGI (MDA-MB-435) of 1.74 µM, a GI50 (OVCAR-3 ovarian) of 0.351 µM and a TGI (OVCAR-3 ovarian) of 1.3 µM. The GI50 (OVCAR-4 ovarian) was 0.413 µM, the TGI (OVCAR-4 ovarian) was 2.1 µM and the GI50 (OVCAR-5 ovarian) was 1.21 µM. It also gave a TGI (OVCAR-5 ovarian) of 3.28 µM, a GI50 (RXF 393 renal) of 0.546 µM and a TGI (RXF 393 renal) of 1.86 µM. It also gave a GI50 (SF-268 CNS) of 0.431 µM, a TGI (SF-268 CNS) of 2.49 µM and a GI50 (SF-539 CNS) of 0.629 µM. The TGI (SF-539 CNS) was 2.13 µM, the GI50 (SK-MEL-2 melanoma) was 0.337 µM and the TGI (SK-MEL-2 melanoma) was 1.26 µM. For the same compound, the GI50 (SK-OV-3 ovarian) was 0.391 µM, the TGI (SK-OV-3 ovarian) was 3.63 µM and the GI50 (SNB-75 CNS) was 0.385 µM. For the same compound, the TGI (SNB-75 CNS) was 2.65 µM, the GI50 (SW-620 colon) was 0.421 µM and the TGI (SW-620 colon) was 2.99 µM. It also gave a GI50 (TK-10 renal) of 0.583 µM and a TGI (TK-10 renal) of 1.98 µM.
